The values below come from patent US20140005126A1, “SCAFFOLD PEPTIDES” (ISOGENICA LTD, priority 2010, published 2014).

pKd: −log10 of the molar value. Where a SMILES comes first, the peptide text is derived from it. Bridges are numbered along the chain shown (N, C = ends). The star is where a group is joined. Biotin = O=C1N[C@H]2[C@H](CS[C@H]2CCCCC(=O)*)N1

The target of data set [1] is T1, binding of VEGFR2 to VEGF (Homo sapiens, UniProt P35968).
T1 construct: His tag (only implied by detection with penta His-HRP); purchased R&D Systems
The experiment in a line: Competition ELISA: binding of VEGFR2 to VEGF-A coated wells in presence of WW domain peptide. The procedure: A competition assay was carried out in which binding of VEGFR2 to VEGF-A (VEGF) was competed by the presence of varying amounts of the selected modified WW domain peptide.
50 ng human VEGF (R&D Systems, Abingdon, UK) 1 μg/ml in PBS was coated per well onto a Maxisorp plate at 37° C. for 140 minutes. The wells were then blocked with 100 μl PBS containing 2% BSA for 55 minutes at room temperature. 1.25 ng VEGFR2 was preincubated with WW-B1 fused to maltose binding protein (MBP) in 50 μl PBS for 45 minutes at room temperature. The activity of the WW-B1 peptide was tested at serial dilutions from 10 μM to 156.25 nM. 50 μl 4% BSA in PBS was added to the preincubated VEGFR2 with WW-B1-MBP and the whole mixture was then added to the VEGF coated ELISA plate and incubated at room temperature for 55 minutes. The plate was then washed with 3 washes in PBS-Tween and 2 washes in PBS. Next 50 μl/well penta His-HRP (QIAgen, diluted 1:500 in 2% BSA in PBS) was added and the mixture incubated at room temperature for 55 minutes, before washing as before. ELISA signals were detected using SureBlue TMB peroxidase substrate (Insight biotechnology, Middlesex, UK) at 450 nm.
As a control, the above process was repeated with wild-type Pin1 WW domain peptide replacing WW-B1. The results are illustrated in FIG. 6.
In general terms: An ELISA detects its analyte on a solid surface through an enzyme-linked reagent.

The nature of data set [2]: Far-UV CD analysis at different temperatures. Type of data set: physicochemical. The conditions noted are these: 0.2 mg/ml peptide. The procedure:
Peptides were resuspended in Molecular Biology Grade water or 10 mM sodium phosphate, pH 7, at a concentration of 200 μM to 1.4 mM. Far-UV scans were measured on an Aviv Model 410 spectrometer measuring at 0.5 nm intervals with a 1 sec averaging time, between 190 and 260 nm using 0.2 mg/ml peptide and a 1 nm bandwidth. Three scans were taken in total at each temperature and the results averaged. The CD scans were plotted using Aviv model 4.10 software, and the data were converted to molar ellipticity (M^−1 cm^−1). […] This far-UV spectrum is characteristic of other small structurally characterised β-sheet structures (Koepf et al. 1999, Protein Science, 8, 841-853; see FIG. 15).

The next data set can be described thus: Plasma stability assay. The data set is classed as in vitro ADME. The settings on record: mouse, 250 μM peptide, 37° C., HPLC area, one phase exponential decay. The procedure:
Peptides were resuspended in Molecular Biology Grade water at a concentration of 3 mM. The WW-B1 peptide was added to 300 μl mouse plasma (Harlan) or PBS (control) to a final concentration of 250 μM (2 samples). The samples were incubated at 37° C. 40 μl aliquots were removed from sample A at 0, 12, 14, 16, 18, 20 and 22 hr and from sample B at 0, 2, 4, 6, 8 and 10 hr. To purify each aliquot, double the volume of 100% ethanol (80 μl) was added and incubated at −20° C. for a few hours or overnight. The samples were centrifuged and 80 μl supernatant recovered. 40 μl water with 0.1% TFA was added to each sample and 100 μl was injected onto a SunFire C18 HPLC column. Buffer A (0.1% TFA in Water) was run through the column followed by 10-50% Buffer B (0.1% TFA, 5% water in 95% acetonitrile) over 20 min. The fractions from the column were collected and analysed using an AXIMA mass spectrometer.

The target in a further data set is T2, VEGFR2-Fc fusion (Homo sapiens, UniProt P35968).
T2 construct: His tag (only implied: capture on TALON beads, detection with penta His-HRP); purchased R&D Systems
The data set can be described thus: Real time binding assay by biolayer interferometry (Octet Red), steady state analysis. In general terms: BLI is a label-free optical method that tracks binding on a fibre tip over time.

T1 sequence (P35968 with tags, fused parts or gaps): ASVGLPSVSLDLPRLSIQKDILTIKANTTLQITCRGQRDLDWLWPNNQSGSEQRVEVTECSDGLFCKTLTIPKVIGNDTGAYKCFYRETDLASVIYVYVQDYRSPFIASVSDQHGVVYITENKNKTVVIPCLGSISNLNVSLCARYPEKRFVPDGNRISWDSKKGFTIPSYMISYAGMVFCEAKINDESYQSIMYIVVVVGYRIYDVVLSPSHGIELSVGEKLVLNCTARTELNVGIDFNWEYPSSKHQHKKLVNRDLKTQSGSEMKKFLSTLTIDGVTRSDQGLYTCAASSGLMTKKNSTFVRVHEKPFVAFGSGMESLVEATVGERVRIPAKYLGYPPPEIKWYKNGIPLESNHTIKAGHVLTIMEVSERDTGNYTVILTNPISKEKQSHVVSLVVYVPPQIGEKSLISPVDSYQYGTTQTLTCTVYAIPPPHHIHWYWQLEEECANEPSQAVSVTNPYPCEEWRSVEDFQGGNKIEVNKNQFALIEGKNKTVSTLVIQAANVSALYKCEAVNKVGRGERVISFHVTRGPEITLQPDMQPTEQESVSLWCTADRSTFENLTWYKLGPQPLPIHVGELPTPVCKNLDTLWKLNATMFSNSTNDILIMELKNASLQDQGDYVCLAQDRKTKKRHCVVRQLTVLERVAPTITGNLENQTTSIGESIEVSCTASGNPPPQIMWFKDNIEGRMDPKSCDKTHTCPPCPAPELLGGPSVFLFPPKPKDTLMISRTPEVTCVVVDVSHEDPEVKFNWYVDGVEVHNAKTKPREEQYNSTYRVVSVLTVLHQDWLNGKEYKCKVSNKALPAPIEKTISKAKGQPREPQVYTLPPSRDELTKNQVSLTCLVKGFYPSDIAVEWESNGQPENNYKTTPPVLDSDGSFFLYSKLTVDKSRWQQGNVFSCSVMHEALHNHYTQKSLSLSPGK
T2 sequence (P35968 with tags, fused parts or gaps): as above
Experimental for VEGFR2-Fc fusion: Alternatively, real-time binding assays between a chemically synthesised WW domain and ligand may be performed using biolayer interferometry with an Octet Red system (Fortebio, Menlo Park, Calif.). Biotinylated WW domain is immobilised to streptavidin biosensors (Fortebio) at a concentration of 50 ng/μl in PBS. Association curves are then detected by incubating WW domain-coated sensors with different concentrations of ligand (e.g. 1 to 100 nM in PBS), and dissociations detected by incubating the sensors in PBS. The dissociation constant for WW domain binding can be determined by steady state analysis.
Real-time binding assays between the peptides and VEGFR2-Fc fusion were performed using biolayer interferometry with an Octet Red system (Fortebio, Menlo Park, Calif.). WW peptides were immobilised on streptavidin biosensors (Fortebio) at a concentration of 2 μg/ml in kinetic buffer. Association curves were then detected by incubating the immobilised peptide with streptavidin-HRP (1 to 100 nM in kinetic buffer), and dissociations were detected by incubating the sensors in kinetic buffer.

For the compound “MADEEKLPPGWEKRMSRSSGRVYYFNHITNASQWERPSG [wild-type Pin1 WW domain, peptide fragment of the human Pin1 protein, used as control]”, the “binding affinity for VEGFR2 (concluded from competition assay)” value in data set [1] (control replacing WW-B1) is “negligible”. For the same compound, the “effect on the binding of VEGFR2 to VEGF” value in data set [1] (control replacing WW-B1 in the competition ELISA) is reported as “essentially no effect”.

As to `CC[C@H](C)[C@H](NC(=O)[C@H](CC(=O)O)NC(=O)[C@H](CC(N)=O)NC(=O)[C@@H](NC(=O)[C@H](Cc1ccc(O)cc1)NC(=O)[C@H](CC(C)C)NC(=O)[C@@H](NC(=O)[C@H](CCCNC(=N)N)NC(=O)CNC(=O)[C@@H]1CCCN1C(=O)[C@H](CO)NC(=O)[C@H](CO)NC(=O)[C@H](Cc1c[nH]c2ccccc12)NC(=O)[C@H](CCSC)NC(=O)[C@H](CCCCN)NC(=O)[C@H](Cc1ccc(O)cc1)NC(=O)[C@H](Cc1c[nH]c2ccccc12)NC(=O)CNC(=O)[C@@H]1CCCN1C(=O)[C@@H]1CCCN1C(=O)[C@H](CC(C)C)NC(=O)[C@H](CCCCN)NC(=O)[C@H](CCC(=O)O)NC(=O)[C@H](CCC(=O)O)NC(=O)[C@H](CC(=O)O)NC(=O)[C@H](C)NC(=O)[C@H](CCSC)NC(=O)CCCC[C@@H]1SC[C@@H]2NC(=O)N[C@@H]21)C(C)C)C(C)C)C(=O)N[C@H](C(=O)N[C@@H](Cc1c[nH]cn1)C(=O)N[C@@H](C)C(=O)N[C@@H](Cc1c[nH]cn1)C(=O)N[C@@H](CCCNC(=N)N)C(=O)N[C@@H](Cc1c[nH]c2ccccc12)C(=O)N[C@@H](CCC(=O)O)C(=O)N[C@@H](CCCNC(=N)N)C(=O)N1CCC[C@H]1C(=O)N[C@@H](CO)C(=O)NCC(N)=O)[C@@H](C)O` [WW-B1] (Biotin-MADEEKLPPGWYKMWSSPGRVLYVNDITHAHRWERPSG-NH2; N-terminus and C-terminus assumed), in data set [2], the “structure after heating to 95° C. and cooling to 25° C.” value is given as “able to reform its structure”; the “CD peak at 227-231 nm at 95° C. (folding state)” value is “unfolding”. This compound also had a half-life at 250 μM in the data set “Plasma stability assay” of 6.2 h.

As to `CC[C@H](C)[C@@H]1NC(=O)[C@H](CC(=O)O)NC(=O)[C@H](CC(N)=O)NC(=O)[C@H](C(C)C)NC(=O)[C@H](Cc2ccc(O)cc2)NC(=O)[C@H](CC(C)C)NC(=O)[C@H](C(C)C)NC(=O)[C@H](CCCNC(=N)N)NC(=O)CNC(=O)[C@@H]2CCCN2C(=O)[C@H](CO)NC(=O)[C@H](CO)NC(=O)[C@H](Cc2c[nH]c3ccccc23)NC(=O)[C@H](CCSC)NC(=O)[C@H](CCCCN)NC(=O)[C@H](Cc2ccc(O)cc2)NC(=O)[C@H](Cc2c[nH]c3ccccc23)NC(=O)CNC(=O)[C@@H]2CCCN2C(=O)[C@@H]2CCCN2C(=O)[C@H](CC(C)C)NC(=O)[C@@H](NC(=O)[C@H](CCC(=O)O)NC(=O)[C@H](CCC(=O)O)NC(=O)[C@H](CC(=O)O)NC(=O)CCCC[C@@H]2SC[C@@H]3NC(=O)N[C@@H]32)CCCCNC(=O)CC[C@@H](C(=O)NCC(N)=O)NC(=O)[C@@H]2CCCN2C(=O)[C@H](CCCNC(=N)N)NC(=O)[C@H](CCC(=O)O)NC(=O)[C@H](Cc2c[nH]c3ccccc23)NC(=O)[C@H](CCCNC(=N)N)NC(=O)[C@H](Cc2c[nH]cn2)NC(=O)[C@H](C)NC(=O)[C@H](Cc2c[nH]cn2)NC(=O)[C@H]([C@@H](C)O)NC1=O` [cyclised WW-B1] (Biotin-DEEKLPPGWYKMWSSPGRVLYVNDITHAHRWERPEG-NH2; lactam 4-35), at VEGFR2-Fc fusion (peptide on streptavidin biosensors, 2 μg/ml in kinetic buffer, steady state analysis (Example 4), read-out: dissociation constant / affinity for VEGFR2), the pKd was 7.51. Also, the “binding affinity to VEGFR2 compared with non-cyclised WW-B1” value on VEGFR2-Fc fusion (tested as set out in Example 2) is “comparable activity”. Further, in data set [2], the “structure after heating to 95° C. and cooling to 25° C.” value is on record as “able to reform its structure”; the “CD peak at 227-231 nm at 95° C. (folding state)” value was “unfolding”.

The term half-life denotes the time in which the quantity being followed falls by half. Higher therefore signals slow decline.
